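A five-concentration, 48-hour dose response in 96-well plates underlies each endpoint, interpolated linearly between surrounding concentrations. GI50 is the concentration that inhibits growth by half.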 Active and inactive are the calls of the source. Cut-off read from the data, not from the text of the source: active = GI50 up to about 1.1 µM and inactive = higher.
Experiments:
Assay in all cases: DTP human tumour cell line panel, 48 h
NCI-H460 = tested on: NCI-H460
SR = tested on: SR
MOLT-4 = tested on: MOLT-4
HL-60 = tested on: HL-60
HCT-15 = tested on: HCT-15
NCI/ADR-RES = tested on: NCI/ADR-RES
Hs-578T = tested on: Hs-578T
M14 = tested on: M14
LOX IMVI = tested on: LOX IMVI
HCC 2998 = tested on: HCC 2998
HOP-92 = tested on: HOP-92
T47D = tested on: T47D
SK-MEL-28 = tested on: SK-MEL-28
SK-OV-3 = tested on: SK-OV-3
NCI-H226 = tested on: NCI-H226
SNB-75 = tested on: SNB-75
SNB-19 = tested on: SNB-19
NCI-H522 = tested on: NCI-H522
BT-549 = tested on: BT-549
A498 = tested on: A498

Question: Which GI50 (NCI-H460) does the source give for `O=C1NCCCc2nonc21` here?
Answer: The GI50 was > 100 µM (inactive).

Question: And the GI50 (SR)?
Answer: The GI50 was > 100 µM (inactive).

Question: What about the GI50 (MOLT-4) of the same compound?
Answer: Its GI50 is > 100 µM (inactive).

Question: And the GI50 (HL-60)?
Answer: Its GI50 is > 100 µM (inactive).

Question: What about the GI50 (HCT-15) of the same compound?
Answer: Its GI50 is greater than 100 µM.

Question: And the GI50 (NCI/ADR-RES)?
Answer: The GI50 was > 100 µM (inactive).

Question: What about the GI50 (Hs-578T) of the same compound?
Answer: The GI50 was > 100 µM (inactive).

Question: And the GI50 (M14)?
Answer: The GI50 was > 100 µM (inactive).

Question: What about the GI50 (LOX IMVI) of the same compound?
Answer: The GI50 was > 100 µM (inactive).

Question: And the GI50 (HCC 2998)?
Answer: Its GI50 is > 100 µM (inactive).

Question: What about the GI50 (HOP-92) of the same compound?
Answer: The GI50 was > 100 µM (inactive).

Question: And the GI50 (T47D)?
Answer: The GI50 was > 100 µM (inactive).

Question: What about the GI50 (SK-MEL-28) of the same compound?
Answer: Its GI50 is > 100 µM (inactive).

Question: And the GI50 (SK-OV-3)?
Answer: The GI50 was > 100 µM (inactive).

Question: And the GI50 (NCI-H226)?
Answer: Its GI50 is > 100 µM (inactive).

Question: And the GI50 (SNB-75)?
Answer: The GI50 was > 100 µM (inactive).

Question: And the GI50 (SNB-19)?
Answer: Its GI50 is > 100 µM (inactive).

Question: Which GI50 (NCI-H460) does the source give for `Cc1nnc2sc(Cc3cnc(N)s3)nn12` here?
Answer: Its GI50 is > 100 µM (inactive).

Question: What about the GI50 (SR) of the same compound?
Answer: The GI50 was > 100 µM (inactive).

Question: What about the GI50 (MOLT-4) of the same compound?
Answer: The GI50 was > 100 µM (inactive).

Question: What about the GI50 (HL-60) of the same compound?
Answer: The GI50 was > 100 µM (inactive).

Question: And the GI50 (HCT-15)?
Answer: Its GI50 is greater than 100 µM.

Question: And the GI50 (NCI/ADR-RES)?
Answer: Its GI50 is > 100 µM (inactive).

Question: What about the GI50 (Hs-578T) of the same compound?
Answer: Its GI50 is > 100 µM (inactive).

Question: What about the GI50 (M14) of the same compound?
Answer: The GI50 was > 100 µM (inactive).

Question: What about the GI50 (HCC 2998) of the same compound?
Answer: The GI50 was > 100 µM (inactive).

Question: And the GI50 (HOP-92)?
Answer: The GI50 was > 100 µM (inactive).

Question: What about the GI50 (T47D) of the same compound?
Answer: Its GI50 is > 100 µM (inactive).

Question: And the GI50 (NCI-H522)?
Answer: Its GI50 is > 100 µM (inactive).

Question: What about the GI50 (SK-MEL-28) of the same compound?
Answer: The GI50 was > 100 µM (inactive).

Question: And the GI50 (SK-OV-3)?
Answer: The GI50 was > 100 µM (inactive).

Question: And the GI50 (NCI-H226)?
Answer: The GI50 was 77.6 µM (inactive).

Question: What about the GI50 (SNB-75) of the same compound?
Answer: Its GI50 is > 100 µM (inactive).

Question: What about the GI50 (SNB-19) of the same compound?
Answer: The GI50 was > 100 µM (inactive).

Question: For `COc1nc2c(c(=O)n1C)N=C(c1ccc(Cl)cc1)CC(c1ccccc1)N2` (stereo unspecified), which GI50 (BT-549) is on record?
Answer: The GI50 was 27.4 µM (inactive).

Question: What about the GI50 (NCI-H460) of the same compound?
Answer: Its GI50 is 14.4 µM (inactive).

Question: And the GI50 (SR)?
Answer: Its GI50 is 23.7 µM (inactive).

Question: And the GI50 (MOLT-4)?
Answer: The GI50 was 17.6 µM (inactive).

Question: And the GI50 (HCT-15)?
Answer: The GI50 was 15 µM.

Question: And the GI50 (NCI/ADR-RES)?
Answer: The GI50 was 22.2 µM (inactive).

Question: What about the GI50 (M14) of the same compound?
Answer: Its GI50 is 32.9 µM (inactive).

Question: And the GI50 (LOX IMVI)?
Answer: The GI50 was 21.2 µM (inactive).

Question: What about the GI50 (HCC 2998) of the same compound?
Answer: The GI50 was 17.7 µM (inactive).

Question: And the GI50 (HOP-92)?
Answer: Its GI50 is 42.8 µM (inactive).

Question: And the GI50 (NCI-H522)?
Answer: Its GI50 is 17.9 µM (inactive).

Question: What about the GI50 (SK-MEL-28) of the same compound?
Answer: Its GI50 is 54.1 µM (inactive).

Question: And the GI50 (A498)?
Answer: The GI50 was 41.6 µM (inactive).

Question: What about the GI50 (SK-OV-3) of the same compound?
Answer: The GI50 was 41.5 µM (inactive).

Question: And the GI50 (NCI-H226)?
Answer: Its GI50 is 16.1 µM (inactive).

Question: What about the GI50 (SNB-75) of the same compound?
Answer: Its GI50 is 14.3 µM (inactive).

Question: What about the GI50 (SNB-19) of the same compound?
Answer: Its GI50 is 38.8 µM (inactive).

Question: For `N#Cc1ccc(/C=N/NC(=O)CSCC(=O)N/N=C/c2ccc(C#N)cc2)cc1`, which GI50 (NCI-H460) is on record?
Answer: Its GI50 is > 100 µM (inactive).

Question: What about the GI50 (SR) of the same compound?
Answer: The GI50 was > 100 µM (inactive).

Question: What about the GI50 (MOLT-4) of the same compound?
Answer: Its GI50 is > 100 µM (inactive).

Question: And the GI50 (HL-60)?
Answer: The GI50 was > 100 µM (inactive).

Question: What about the GI50 (HCT-15) of the same compound?
Answer: Its GI50 is greater than 100 µM.

Question: What about the GI50 (NCI/ADR-RES) of the same compound?
Answer: Its GI50 is > 100 µM (inactive).

Question: What about the GI50 (Hs-578T) of the same compound?
Answer: The GI50 was > 100 µM (inactive).

Question: What about the GI50 (M14) of the same compound?
Answer: Its GI50 is > 100 µM (inactive).

Question: What about the GI50 (HCC 2998) of the same compound?
Answer: The GI50 was > 100 µM (inactive).

Question: And the GI50 (HOP-92)?
Answer: Its GI50 is > 100 µM (inactive).

Question: What about the GI50 (T47D) of the same compound?
Answer: The GI50 was > 100 µM (inactive).

Question: And the GI50 (NCI-H522)?
Answer: Its GI50 is > 100 µM (inactive).

Question: And the GI50 (SK-MEL-28)?
Answer: The GI50 was > 100 µM (inactive).

Question: And the GI50 (A498)?
Answer: The GI50 was > 100 µM (inactive).

Question: What about the GI50 (SK-OV-3) of the same compound?
Answer: The GI50 was > 100 µM (inactive).

Question: And the GI50 (NCI-H226)?
Answer: The GI50 was > 100 µM (inactive).

Question: What about the GI50 (SNB-75) of the same compound?
Answer: The GI50 was 26.3 µM (inactive).

Question: What about the GI50 (SNB-19) of the same compound?
Answer: Its GI50 is > 100 µM (inactive).

Question: What does the source list for `C=C1C(C(=O)O)C1C(=O)O` (stereo unspecified)?
Answer: GI50 (NCI-H460): > 100 µM (inactive); GI50 (SR): > 100 µM (inactive); GI50 (MOLT-4): > 100 µM (inactive); GI50 (HL-60): > 100 µM (inactive); GI50 (HCT-15): > 100 µM; GI50 (M14): > 100 µM (inactive); GI50 (LOX IMVI): > 100 µM (inactive); GI50 (HCC 2998): > 100 µM (inactive); GI50 (HOP-92): > 100 µM (inactive); GI50 (NCI-H522): > 100 µM (inactive); GI50 (SK-MEL-28): > 100 µM (inactive); GI50 (A498): > 100 µM (inactive); GI50 (SK-OV-3): > 100 µM (inactive); GI50 (NCI-H226): 21.1 µM (inactive); GI50 (SNB-75): > 100 µM (inactive); GI50 (SNB-19): > 100 µM (inactive)

Question: Which results are given for `O=C1NCCS(=O)(=O)N2CCC[C@@H]12`?
Answer: GI50 (NCI-H460): > 100 µM (inactive); GI50 (SR): > 100 µM (inactive); GI50 (MOLT-4): > 100 µM (inactive); GI50 (HL-60): > 100 µM (inactive); GI50 (HCT-15): > 100 µM; GI50 (M14): > 100 µM (inactive); GI50 (LOX IMVI): > 100 µM (inactive); GI50 (HCC 2998): > 100 µM (inactive); GI50 (HOP-92): > 100 µM (inactive); GI50 (NCI-H522): > 100 µM (inactive); GI50 (SK-MEL-28): > 100 µM (inactive); GI50 (A498): > 100 µM (inactive); GI50 (SK-OV-3): > 100 µM (inactive); GI50 (NCI-H226): 60.3 µM (inactive); GI50 (SNB-75): > 100 µM (inactive); GI50 (SNB-19): > 100 µM (inactive)

Source: ChEMBL document CHEMBL1201862, “PubChem BioAssay data set” (2004)
